Assay results as given in PubChem BioAssay AID602375 (Sanford-Burnham Center for Chemical Genomics, 2012).
Calls of active or inactive are those of the source. The rule behind the calls is not given here.

The compounds below were run on S. cerevisiae tim23-1 mutant growth, luminescence (assay: analog potency on tim23-1 yeast growth – luminescence, S. cerevisiae, SAR follow-up (AID 602375)).
In the case of `Cc1nn(Cc2cccc(C(=O)O/N=C(\N)c3ccc(Cl)cc3)c2)c(C)c1Br`, the IC50 is reported as 2.65 µM. `CCOc1ccc(C(=O)O/N=C(\N)c2ccc(OC)cc2)cc1OCC` showed an IC50 of 1.48 µM. For `O=C1OC(c2ccccc2)=N/C1=C\C=C\c1ccco1`, the IC50 was 2.44 µM. `N#Cc1ccc(C2N=C(c3ccccc3)NO2)cc1` (stereo unspecified) was tested, and the IC50 was > 99 µM (inactive). For `Cc1nc2scc(C)n2c(=O)c1S(=O)(=O)Nc1cc(C(F)(F)F)ccc1Cl`, the IC50 was > 99 µM (inactive). In the case of `CCN(CC)S(=O)(=O)c1ccc(C(=O)OCn2nnc3ccccc3c2=O)cc1`, the IC50 is reported as 13 µM. With `N#Cc1c(-c2ccc([N+](=O)[O-])cc2)cc(-c2ccccc2)nc1N` the IC50 was > 99 µM (inactive). `N/C(=N\OC(=O)c1ccc(Cl)cc1)c1ccc(Cl)cc1` showed an IC50 of 3.02 µM. In the case of `COc1ccc(Cl)cc1NS(=O)(=O)c1c(C)nc2scc(C)n2c1=O`, the IC50 is reported as > 99 µM (inactive). `CC(C)(C)c1csc(NC(=O)c2ccc(Cl)s2)n1` gave an IC50 of 17.3 µM. For `O=C(Nc1ccn[nH]1)c1ccc(Br)cc1Cl`, the IC50 was > 99 µM (inactive). In the case of `Cc1ccc2nc(CSc3nc(C)c(C)c(C)c3C(N)=O)cc(=O)n2c1`, the IC50 is reported as 29.6 µM. With `Cc1c2c(n(Cc3ccco3)c1C)N=CN1CCS(=O)(=O)N=C21` the IC50 was > 99 µM (inactive). For `O=c1cc(CSc2ccc(C(F)(F)F)cn2)nc2ccc(Br)cn12`, the IC50 was > 99 µM (inactive). `Cc1nc2scc(C)n2c(=O)c1S(=O)(=O)Nc1ccc(F)cc1Cl` gave an IC50 of 52.7 µM. `N/C(=N\OC(=O)c1ccc(Cl)cc1)c1ccc(Oc2ccc(C(F)(F)F)cn2)cc1` showed an IC50 of 0.57 µM. `N/C(=N\OC(=O)c1ccc(Cl)cc1)c1ccc2nonc2c1` was tested, and the IC50 was > 99 µM (inactive). Work on `Cc1ccc2nc(NC(=O)C3CCCN3S(C)(=O)=O)sc2c1` (stereo unspecified) yielded an IC50 of 91.9 µM. With `Cc1nc2scc(C)n2c(=O)c1S(=O)(=O)Nc1ccc(OC(F)(F)F)cc1` the IC50 was 16.5 µM. In the case of `Cc1nc2scc(C)n2c(=O)c1S(=O)(=O)Nc1ccc(Oc2ccc(Cl)cc2)cc1`, the IC50 is reported as > 99 µM (inactive). In the case of `Cc1nc2scc(C)n2c(=O)c1S(=O)(=O)Nc1ccc(N2CCOCC2)cc1`, the IC50 is reported as 16.3 µM. `Cn1c(SCc2cccc(/C(N)=N/OC(=O)c3ccc(Cl)cc3)c2)nnc1C(F)(F)F` was tested, and the IC50 was 2.37 µM. In the case of `Cc1nc2scc(C)n2c(=O)c1S(=O)(=O)Nc1ccc(N2CCN(C(=O)C(C)C)CC2)cc1`, the IC50 is reported as > 99 µM (inactive). For `N=c1c2c(-c3ccccc3)c(-c3ccccc3)n(Cc3ccco3)c2ncn1CCCN1CCOCC1`, the IC50 was > 99 µM (inactive). Work on `O=C(NN=C/C=C\c1ccco1)c1cccs1` yielded an IC50 of 6.87 µM. In the case of `N/C(=N\OC(=O)c1ccc(Cl)cc1)c1ccc(-c2csnn2)cc1`, the IC50 is reported as > 99 µM (inactive). `CC(=O)Nc1ccc(C(C(F)(F)F)(C(F)(F)F)C(F)(F)F)cc1` was tested, and the IC50 was > 99 µM (inactive). For `Cc1nc2scc(C)n2c(=O)c1S(=O)(=O)Nc1ccc(Cl)c(C(F)(F)F)c1`, the IC50 was > 99 µM (inactive). For `Cc1ccc2nc(CSc3ccc(S(=O)(=O)N4CCCC4)cn3)cc(=O)n2c1`, the IC50 was > 99 µM (inactive). With `Cc1cc2cc(CNC(=O)c3ccc(F)c(F)c3)ccc2[nH]1` the IC50 was > 99 µM (inactive). In the case of `CCOc1ccc2nc(N3C(=O)CNC3=S)sc2c1`, the IC50 is reported as > 99 µM (inactive). For `Cc1csc(NC(=O)c2sc3nc4c(cc3c2N)CN(C)CC4)n1`, the IC50 was > 99 µM (inactive). For `CC(C)Cn1cnc2c(c(-c3ccccc3)c(-c3ccccc3)n2Cc2ccco2)c1=N`, the IC50 was 21.6 µM. For `CC(=O)c1ccc2[nH]c3c(c2c1)CCCC3=O`, the IC50 was > 99 µM (inactive). For `Cc1ccc2nc(CS(=O)(=O)c3ncccc3Cl)cc(=O)n2c1`, the IC50 was > 99 µM (inactive). `Cc1ccc(-c2cc(NC(=O)c3c(C)noc3C)nc(-c3ccccc3)c2)cc1` was tested, and the IC50 was > 99 µM (inactive). With `COc1ccc2c(C)cc(SCc3cc(=O)n4cc(C)ccc4n3)nc2c1` the IC50 was > 99 µM (inactive). For `N/C(Cc1cccc2ccccc12)=N\OC(=O)COc1ccc(Cl)cc1Cl`, the IC50 was 19.1 µM. `O=C(CSCc1ccccc1)Nc1cc(S(=O)(=O)N2CCOCC2)ccc1Oc1ccccc1` was tested, and the IC50 was > 99 µM (inactive). With `Cc1ccc(-c2nc3ccc(NC(=O)c4cccs4)cc3[nH]2)o1` the IC50 was 1.42 µM. For `N/C(=N\OC(=O)c1ccc2ncsc2c1)c1ccccc1`, the IC50 was 14.8 µM. `CCCN(C(=O)c1ccc([N+](=O)[O-])c(C)c1)c1c(N)n(Cc2ccccc2)c(=O)[nH]c1=O` showed an IC50 of 0.987 µM. `CCN(C(=O)c1cccc2ncccc12)c1c(N)n(Cc2ccccc2)c(=O)[nH]c1=O` was tested, and the IC50 was > 99 µM (inactive). For `O=c1cc(CSc2ccccn2)nc2ccccn12`, the IC50 was > 99 µM (inactive). With `Cc1ccc(S(=O)(=O)Cc2cc(=O)n3ccccc3n2)nc1` the IC50 was > 99 µM (inactive). `Cc1cccn2c(=O)cc(CSc3cc(C(=O)NC4CC4)c4ccccc4n3)nc12` was tested, and the IC50 was > 99 µM (inactive). `Cc1ccc(-c2nn(-c3ccccc3)cc2NC(=O)CCl)cc1` was tested, and the IC50 was 1.75 µM. Work on `O=C(Nc1ccc(-c2cn3ccccc3n2)cc1)c1cccs1` yielded an IC50 of 0.897 µM. With `O=c1cc(C(F)F)oc2c1ccc1ccccc12` the IC50 was > 99 µM (inactive). In the case of `COc1ccc(/C(N)=N/OC(=O)c2ccc(C(F)(F)F)cc2)c(OC)c1`, the IC50 is reported as > 99 µM (inactive). `N#Cc1c(-c2ccccc2)cc(-c2ccc(O)cc2)nc1N` showed an IC50 of 2.9 µM. Work on `Cc1cc(OCC(=O)O/N=C(\N)Cc2ccc(Cl)cc2)ccc1Br` yielded an IC50 of 3.69 µM. For `CN1CCN(c2nc(-c3cccnc3)nc3ccccc23)CC1`, the IC50 was > 99 µM (inactive). With `CN1CCc2nc3sc(C(=O)C45CC6CC(CC(C6)C4)C5)c(N)c3cc2C1` the IC50 was 18.1 µM. For `CCN1CCc2nc3sc(C(=O)Nc4cc(Cl)ccc4OC)c(N)c3cc2C1`, the IC50 was > 99 µM (inactive). With `O=S(=O)(Nc1ccc(-c2cn3c(n2)SCC3)cc1)c1cccnc1` the IC50 was > 99 µM (inactive). `O=C(Nc1nc2c(s1)Cc1ccccc1-2)c1ccc(Br)s1` was tested, and the IC50 was > 99 µM (inactive). Work on `O=c1cc(CSc2ccc(S(=O)(=O)N3CCCCC3)cn2)nc2ccc(Br)cn12` yielded an IC50 of 70.2 µM. `O=C(Nc1ccn[nH]1)c1cccc(OCc2cccnc2)c1` was tested, and the IC50 was > 99 µM (inactive). For `Cc1nc2scc(C)n2c(=O)c1S(=O)(=O)Nc1cccc(O)c1`, the IC50 was > 99 µM (inactive). For `N/C(=N\OC(=O)c1ccc2ccccc2c1)c1ccc(I)cc1`, the IC50 was > 99 µM (inactive). `N#C/C(=C\c1ccc(Cl)cc1)C(=O)Nc1cccnc1` was tested, and the IC50 was 16 µM. For `O=C(Nc1ccc2nc(-c3ccc(Br)o3)[nH]c2c1)c1cccs1`, the IC50 was 0.882 µM. `O=C(N/N=C/C(Cl)=C\c1ccccc1)c1cccs1` gave an IC50 of 2.3 µM. With `O=C(CSc1cccc[n+]1[O-])Nc1ccccc1Oc1ccccc1` the IC50 was 1.06 µM. With `O=C(O)c1cccnc1SCc1cc(=O)n2cc(Br)ccc2n1` the IC50 was > 99 µM (inactive). With `COc1ccc(C2N=C(c3ccccc3C)NO2)cc1O` (stereo unspecified) the IC50 was > 99 µM (inactive). For `Cc1nc2scc(C)n2c(=O)c1S(=O)(=O)Nc1ccc(N2CCOCC2)c(Cl)c1`, the IC50 was > 99 µM (inactive). With `N/C(=N\OC(=O)c1ccc2ncsc2c1)c1ccc(Cl)cc1Cl` the IC50 was 1.48 µM. In the case of `CN(C(=O)c1cccc(S(C)(=O)=O)c1)c1c(N)n(Cc2ccccc2)c(=O)[nH]c1=O`, the IC50 is reported as > 99 µM (inactive). `O=C(Nc1ccc2nc(-c3ccco3)[nH]c2c1)c1cccs1` gave an IC50 of 0.459 µM. In the case of `CCn1c(N2CCN(S(=O)(=O)c3ccc(OC)cc3)CC2)nc2ccccc21`, the IC50 is reported as 3.69 µM. With `Cc1ccc2nc(N3CCN(S(C)(=O)=O)CC3)[nH]c2c1` the IC50 was > 99 µM (inactive). Compound `C(/C=C/c1ccccc1)=NNc1nc2ccccc2[nH]1` has an IC50 of 11.2 µM. `CC1(C)C=Cc2cc(/C(N)=N/OC(=O)c3ccccc3)ccc2O1` gave an IC50 of 0.617 µM. In the case of `Cc1nc2scc(C)n2c(=O)c1S(=O)(=O)Nc1ccc(N2CCN(S(C)(=O)=O)CC2)cc1`, the IC50 is reported as > 99 µM (inactive). Work on `O=C(O/N=C(/c1ccc(Br)cc1)N1CCOCC1)c1ccccc1` yielded an IC50 of 0.787 µM. For `COc1ccc([N+](=O)[O-])cc1NS(=O)(=O)c1c(C)nc2scc(C)n2c1=O`, the IC50 was > 99 µM (inactive). In the case of `Cc1nc(SCc2cc(=O)n3cc(Br)ccc3n2)c(C#N)c(C)c1C`, the IC50 is reported as > 99 µM (inactive). Work on `O=C(Nc1nc2ccccc2s1)C1CCCN1S(=O)(=O)c1ccc(Cl)cc1` (stereo unspecified) yielded an IC50 of 12 µM. `N/C(Cc1ccc(Cl)cc1)=N\OC(=O)COc1ccccc1Cl` gave an IC50 of 4.54 µM. With `CC(=O)c1ccc(NS(=O)(=O)c2c(C)nc3scc(C)n3c2=O)cc1` the IC50 was 15.9 µM. For `Cc1nc2scc(C)n2c(=O)c1S(=O)(=O)Nc1ccccc1`, the IC50 was > 99 µM (inactive). `COc1ccc(/C=C/C(=O)Nc2ccc3c(c2)CCC3)cc1OC` showed an IC50 of 1.72 µM. `Cc1ccc(/C(N)=N/OC(=O)c2ccccc2)cc1F` gave an IC50 of 1.52 µM. In the case of `CCOc1cc2ccccc2cc1C(=O)O/N=C(\N)c1ccc(Cl)cc1`, the IC50 is reported as 1.57 µM.
